Laboratory results from patent US12655116B2, “Substituted isophthalic acid diamides” (Bayer Aktiengesellschaft, priority 2020, dated 2026).

Tests used:
[1] = system: DIGSA; test: Pre-emergence herbicidal action against DIGSA; type: in vivo, Digitaria sanguinalis
Method in brief: (§1)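 Herbicidal effect was assessed 3 weeks after treatment by visual comparison with untreated controls, 100% denoting dead plants. Aqueous WP or EC preparations had been applied at 600 to 800 l/ha with 0.2% wetting agent to the soil covering freshly sown seeds.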

[2] = system: ECHCG; test: Pre-emergence herbicidal action against ECHCG; type: in vivo, Echinochloa crus-galli; settings: 80 g/ha
Method in brief: as §1

[3] = system: AMARE; test: Pre-emergence herbicidal action against AMARE; type: in vivo, Amaranthus retroflexus
Method in brief: as §1

[4] = system: VERPE; test: Pre-emergence herbicidal action against VERPE; type: in vivo, Veronica persica
Method in brief: as §1

[5] = system: MATIN; test: Pre-emergence herbicidal action against MATIN; type: in vivo, Matricaria inodora
Method in brief: as §1

[6] = system: VIOTR; test: Post-emergence herbicidal action against VIOTR; type: in vivo, Viola tricolor
Method in brief: (§2)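 Herbicidal effect was scored visually in percent after about 3 weeks in the greenhouse. Plants had been raised in sandy loam and treated post-emergence at the one-leaf stage with formulated compound at 600 to 800 l/ha water plus 0.2% wetting agent.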

[7] = system: MATIN; test: Post-emergence herbicidal action against MATIN; type: in vivo, Matricaria inodora
Method in brief: as §2

[8] = system: PHBPU; test: Post-emergence herbicidal action against PHBPU; type: in vivo, Pharbitis purpurea
Method in brief: as §2

[9] = system: DIGSA; test: Post-emergence herbicidal action against DIGSA; type: in vivo, Digitaria sanguinalis; settings: 20 g/ha
Method in brief: as §2

[10] = system: ECHCG; test: Post-emergence herbicidal action against ECHCG; type: in vivo, Echinochloa crus-galli
Method in brief: as §2

[11] = system: ABUTH; test: Pre-emergence herbicidal action against ABUTH; type: in vivo, Abutilon theophrasti; settings: for Pre-emergence action against ABUTH (herbicidal activity): 80 g/ha, scored visually after 3 weeks vs untreated controls (100% = plants have died, 0% = like control plants); for Pre-emergence action against ABUTH (herbicidal activity in percent): dosage 20 g/ha, scored visually after 3 weeks vs untreated controls, 100% = plants have died, 0% = like control plants
Method in brief: as §1

[12] = system: SETVI; test: Pre-emergence herbicidal action against SETVI; type: in vivo, Setaria viridis
Method in brief: as §1

[13] = system: VIOTR; test: Pre-emergence herbicidal action against VIOTR; type: in vivo, Viola tricolor
Method in brief: as §1

[14] = system: ABUTH; test: Post-emergence herbicidal action against ABUTH; type: in vivo, Abutilon theophrasti; settings: visual assessment about 3 weeks after treatment vs untreated controls
Method in brief: as §2

[15] = system: PHBPU; test: Pre-emergence herbicidal action against PHBPU; type: in vivo, Pharbitis purpurea
From the text: Seeds of monocotyledonous and dicotyledonous weed plants and crop plants are laid out in sandy loam soil in wood-fiber pots and covered with soil. The compounds of the invention, formulated in the form of wettable powders (WP) or as emulsion concentrates (EC), are then applied to the surface of the covering soil in the form of an aqueous suspension or emulsion at a water application rate equivalent to 600 to 800 l/ha, with addition of 0.2% wetting agent. After the treatment, the pots are placed in a greenhouse and kept under good growth conditions for the trial plants. The damage to the test plants is scored visually after a test period of 3 weeks by comparison with untreated controls (herbicidal activity in percent (%): 100% activity=the plants have died, 0% activity=like control plants). […] The tables below illustrate, in an illustrative manner, the post-emergence herbicidal action of the compounds of the invention, the herbicidal activity being stated in percent.

[16] = system: AVEFA; test: Pre-emergence herbicidal action against AVEFA; type: in vivo, Avena fatua; settings: 80 g/ha, pre-emergence
Method in brief: as §1

[17] = system: AMARE; test: Post-emergence herbicidal action against AMARE; type: in vivo, Amaranthus retroflexus; settings: 20 g/ha, visual assessment about 3 weeks after treatment, 100% = plants have died, 0% = like control plants
Method in brief: as §2

[18] = system: ALOMY; test: Pre-emergence herbicidal action against ALOMY; type: in vivo, Alopecurus myosuroides; settings: 80 g/ha, pre-emergence, scored visually after 3 weeks vs untreated controls (100% = plants have died, 0% = like control plants)
Method in brief: as §1

[19] = system: VERPE; test: Post-emergence herbicidal action against VERPE; type: in vivo, Veronica persica; settings: 20 g/ha
Procedure: Seeds of monocotyledonous and dicotyledonous weed and crop plants are laid out in sandy loam soil in wood-fiber pots, covered with soil and cultivated in a greenhouse under good growth conditions. 2 to 3 weeks after sowing, the test plants are treated at the one-leaf stage. The compounds of the invention, formulated in the form of wettable powders (WP) or as emulsion concentrates (EC), are then sprayed onto the green parts of the plants in the form of an aqueous suspension or emulsion at a water application rate equivalent to 600 to 800 l/ha, with addition of 0.2% wetting agent. After the test plants have been left to stand in the greenhouse under optimal growth conditions for about 3 weeks, the action of the preparations is assessed visually in comparison to untreated controls (herbicidal action in percent (%): 100% activity=the plants have died, 0% activity=like control plants). […] The tables below illustrate, in an illustrative manner, the post-emergence herbicidal action of the compounds of the invention, the herbicidal activity being stated in percent.

[20] = system: ALOMY; test: Post-emergence herbicidal action against ALOMY; type: in vivo, Alopecurus myosuroides; settings: dosage 20 g/ha, visual assessment about 3 weeks after treatment vs untreated controls
Method in brief: as §2

[21] = system: SETVI; test: Post-emergence herbicidal action against SETVI; type: in vivo, Setaria viridis; settings: dosage 20 g/ha
Method in brief: as §2

[22] = 20 g/ha, scored visually after 3 weeks vs untreated controls, 100% = plants have died, 0% = like control plants
[23] = 80 g/ha, scored visually after 3 weeks vs untreated controls (100% = plants have died, 0% = like control plants)

Row | SMILES | Pre-emergence action against DIGSA in % ([1]; dosage 20 g/ha) | Pre-emergence action against DIGSA in % ([1]; dosage 80 g/ha) | Pre-emergence action against ECHCG in % [2] | Pre-emergence action against AMARE in % [3, 22] | Pre-emergence action against AMARE in % [3, 23] | Pre-emergence action against VERPE in % ([4]; dosage 80 g/ha) | Pre-emergence action against MATIN in % ([5]; dosage 20 g/ha) | Pre-emergence action against MATIN in % ([5]; dosage 80 g/ha) | Post-emergence action against VIOTR in % ([6]; 20 g/ha) | Post-emergence action against PHBPU in % ([8]; dosage 20 g/ha) | Pre-emergence action against ABUTH (herbicidal activity) [11] | Pre-emergence action against ABUTH (herbicidal activity in percent) [11] | Pre-emergence action against SETVI in % ([12]; dosage 80 g/ha) | Pre-emergence action against VIOTR in % ([13]; dosage 20 g/ha) | Pre-emergence action against VIOTR in % ([13]; dosage 80 g/ha) | Post-emergence action against ABUTH in % ([14]; dosage 20 g/ha) | Pre-emergence action against PHBPU in % ([15]; dosage 80 g/ha) | Pre-emergence action against AVEFA in % [16] | Post-emergence action at 20 g/ha against AMARE in % [17] | Pre-emergence action against ALOMY (herbicidal activity) [18] | other results
1 | CCn1nnnc1NC(=O)c1ccc(C(F)(F)F)c(C(=O)NC(C)C2CC2)c1Br (centres unmarked) [Example 2-213] | 80% | 100% | 90% | 100% | 100% | 90% | 100% | 100% | 90% | 80% | 100% | 100% | 100% | 100% | 100% | 80% | 90% | – | – | – | Post-emergence action against MATIN in % ([7]; dosage 5 g/ha): 90%; Post-emergence action against MATIN in % ([7]; dosage 20 g/ha): 100%; Post-emergence action against PHBPU in % ([8]; dosage 5 g/ha): 80%; Post-emergence action against DIGSA [9]: 90%; Post-emergence action against ECHCG in % ([10]; dosage 5 g/ha): 80%; Post-emergence action against ECHCG in % ([10]; dosage 20 g/ha): 80%; Pre-emergence action against PHBPU in % ([15]; dosage 20 g/ha): 80%
2 | CCn1nnnc1NC(=O)c1ccc(Br)c(C(=O)NCCOC)c1Cl [Example 2-186] | – | – | 100% | 100% | 100% | 90% | 80% | 100% | 80% | – | 100% | 100% | – | – | 90% | 90% | – | 80% | 100% | 100% | Post-emergence action against VERPE in % [19]: 80%; Post-emergence action against ABUTH in % ([14]; dosage 5 g/ha): 80%; Post-emergence action against ALOMY in % [20]: 80%
3 | CCn1nnnc1NC(=O)c1ccc(C(F)F)c(C(=O)NCC2CCCO2)c1Cl (centres unmarked) [Example 2-159] | – | – | 90% | 100% | 100% | 80% | – | 90% | – | 90% | 100% | – | – | – | 80% | – | 90% | – | 100% | 80% | Post-emergence action against PHBPU in % ([8]; dosage 5 g/ha): 80%
4 | Cn1nnnc1NC(=O)c1ccc(C(F)(F)F)c(C(=O)NCC2CCCO2)c1Cl (centres unmarked) [Example 1-141] | 90% | 100% | 90% | 100% | 100% | – | – | 100% | – | – | – | – | 100% | 80% | 100% | – | 80% | – | 100% | 90% | Pre-emergence action against SETVI in % ([12]; dosage 20 g/ha): 90%
5 | CCn1nnnc1NC(=O)c1ccc(C(F)F)c(C(=O)NCCOC)c1C [Example 2-346] | – | – | 90% | 100% | 100% | 80% | 90% | 90% | 100% | 80% | 90% | 80% | – | 80% | 80% | 90% | – | 80% | 100% | 80% | Post-emergence action against VIOTR in % ([6]; 5 g/ha): 80%; Post-emergence action against ECHCG in % ([10]; dosage 5 g/ha): 80%; Post-emergence action against ECHCG in % ([10]; dosage 20 g/ha): 90%; Post-emergence action against VERPE in % [19]: 80%; Post-emergence action against ABUTH in % ([14]; dosage 5 g/ha): 90%; Post-emergence action against ALOMY in % [20]: 80%
6 | Cc1nnc(NC(=O)c2ccc(C(F)(F)F)c(C(=O)NCC3CC3)c2C2CC2)o1 [Example 6-228] | 90% | 100% | 90% | – | 100% | – | – | 80% | – | 80% | 90% | – | 80% | – | – | – | 80% | – | 90% | – | Post-emergence action against DIGSA [9]: 80%
7 | CCn1nnnc1NC(=O)c1ccc(OC)c(C(=O)NC2CC2)c1Cl [Example 2-354] | – | – | – | 100% | 100% | 80% | 100% | 100% | 100% | 80% | 100% | 90% | – | 80% | 100% | 90% | – | 90% | 100% | 90% | Pre-emergence action against VERPE in % ([4]; dosage 20 g/ha): 80%; Post-emergence action against SETVI in % [21]: 90%; Post-emergence action against VERPE in % [19]: 90%; Post-emergence action against ABUTH in % ([14]; dosage 5 g/ha): 90%; Post-emergence action against ALOMY in % [20]: 80%
